Where “and” joins values, the source holds several entries; their conditions need not be identical. Equal entries are not always repeated. Where two headings read alike, the source gives them in different places.
How the values were obtained:
[1] = Bi-directional Caco-2 permeability assay; assay type: in vitro ADME; details: human, pH 7.4, Caco-2, 10 µM, triplicate
[2] = biological target: T1, CYP3A4 (Homo sapiens, UniProt P08684); test: CYP3A4 P450-Glo assay; assay type: in vitro ADME; details: 10 μM of compound
T1 construct: purchased Promega
T1 sequence (P08684 whole entry): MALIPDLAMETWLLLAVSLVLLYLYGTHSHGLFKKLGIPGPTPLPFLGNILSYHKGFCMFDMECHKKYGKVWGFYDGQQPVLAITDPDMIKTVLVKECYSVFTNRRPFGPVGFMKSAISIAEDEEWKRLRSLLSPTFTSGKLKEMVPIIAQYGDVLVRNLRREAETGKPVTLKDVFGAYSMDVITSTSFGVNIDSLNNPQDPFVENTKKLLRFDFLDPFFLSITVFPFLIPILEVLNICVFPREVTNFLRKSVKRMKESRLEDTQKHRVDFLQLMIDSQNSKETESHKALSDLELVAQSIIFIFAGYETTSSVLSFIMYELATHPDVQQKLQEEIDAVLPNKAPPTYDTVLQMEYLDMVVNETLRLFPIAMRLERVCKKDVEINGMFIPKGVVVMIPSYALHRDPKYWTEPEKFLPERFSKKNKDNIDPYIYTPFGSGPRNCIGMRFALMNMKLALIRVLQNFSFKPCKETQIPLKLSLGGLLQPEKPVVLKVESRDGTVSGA
Description: The luminescent CYP3A4 P450-Glo™ Promega® (Madison, WI, USA) was used for the investigation of potential drug-drug interactions. All assays and protocols were described before. The compounds were tested in triplicate at the final concentrations in the range from 0.01 to 25 μM. The luminescent signal was measured by using a microplate reader EnSpire PerkinElmer (Waltham, MA, USA).

[3] = PAMPA permeability; assay type: in vitro ADME; details: PBS pH 7.4, 5 h, triplicate, read-out: Pe (PAMPA permeability coefficient) ± SD
Description: The 96-well Pre-coated PAMPA Plate System Gentest™ that was used was obtained from Corning (Tewksbury, MA, USA). […] 200 μL/well of PBS was added to the acceptor wells. All compounds were analyzed in triplicate. The plate was incubated at room temperature for 5 h. Then, the 50 μL was aspirated from each well and diluted next with 50 µL solution of an internal standard (IS). The compounds’ concentrations in acceptor and donor wells were estimated by the UPLC-MS analyses, which were performed by LC/MS Waters ACQUITY™ TQD system with the TQ Detector (Waters, Milford, CT, USA). The permeability coefficients (Pe, cm/s) were calculated according described previously formulas.

[4] = tested on: rats; test: Forced swim test (FST); assay type: in vivo, rat; details: for Immobility Time: 60 min before test, mean ± SEM
Description: The experiment was carried out according to the method of [54]. On the first day of the experiment, the animals were gently individually placed in Plexiglas cylinders (40 cm high, 18 cm in diameter) containing 15 cm of water maintained at 23–25 °C for 15 min. On removal from water, the rats were placed for 30 min in a Plexiglas box under 60-W bulb to dry. On the following day (24 h later), the rats were replaced in the cylinder and the total duration of immobility was recorded during the whole 5-min test period. The immobility was assigned when no additional activity was observed other than that necessary to keep the rat’s head above the water. Fresh water was used for each animal.

[5] = Pharmacokinetics and tissue distribution in rats; assay type: in vivo, rat; details: for Kp: intraperitoneal
Description: To assess pharmacokinetic profile and tissue penetration of 2 and 3, the male Wistar rats were a single intraperitoneal (i.p.) injected with these compounds dissolved in tween (vehicle volume 1 mL/kg) at a dose of 0.3 mg/kg, determined in behavioral studies. The animals were killed by decapitation under deep anesthesia (i.p. injection of 50 mg/kg ketamine and 7.5 mg/kg xylazine) at 5, 15, 30, 60, 120 and 240 min after compounds administration (four animals per time point) and blood samples (approximately 5–6 mL) were collected into tubes. Moreover, five tissues (i.e., brain, heart, lungs, kidneys and liver) were harvested, rinsed with cold saline, and the wet weights determined. Blood was allowed to clot for 15–20 min at room temperature and then centrifuged (3000 rpm for 10 min). The obtained serum and tissues were stored frozen at −80 °C until analysis.
The concentrations of both test compounds in serum and tissue homogenates were measured by a reverse-phase high-performance liquid chromatography method with ultraviolet detection (HPLC/UV). […] The mobile phase consisted of methanol/10 mM potassium dihydrogen phosphate buffer, pH 4.6/acetonitrile (51/40/9, v/v/v). The isocratic separation was performed at 1.0 mL/min constant flow-rate with column temperature maintained at 38 °C. The detection wavelength was set at 206 nm for 2 and at 215 nm for 3. […] EZChrome Elite v. 3.3.2 software (VWR, Darmstadt, Germany) was used for data acquisition.
Before analysis, tissue samples were thawed, placed in four volumes (w/v) of phosphate-buffered saline (PBS, pH 7.4) and homogenized using a MICCRA D-1 homogenizer (ART Prozess- & Labortechnik GmbH & Co., Heitersheim, Germany). To isolate 2 or 3, 500 µL of rat serum or tissue homogenate containing this compound were mixed with a 20-μL volume of IS solution (50 ng/mL or 200 ng/g in methanol). As an IS for compound 2 quantification, compound 3 was used and vice versa.
The samples were alkalized with 50 μL of 4 M sodium hydroxide solution, vortex-mixed, and extracted with 1 mL of ethyl acetate/hexane (30/70, v/v) mixture on a shaker (VXR Vibrax, IKA, Legnica, Poland) for 20 min. After centrifugation (Eppendorf, Mini Spin Plus, Hamburg, Germany), the organic layers were transferred into new tubes containing 100 μL of methanol and 0.1 M sulfuric acid (10/90, v/v) mixture. Then, the samples were shaken and centrifuged again. Finally, 20–90 μL of each acidic layer was injected into the HPLC system.
Other pharmacokinetic parameters were determined on subjecting the concentration–time data to non-compartmental analysis using Phoenix WinNonlin 8.2 software (Pharsight Corporation, a Certara Company, Princeton, NJ, USA).

[6] = tested on: hepatoma HepG2 cell line; test: Hepatotoxicity, HepG2 viability (MTS); assay type: cell-based; details: 0.1–100 µM, 72 h
Description: Cells were grown under previously described conditions. […] The cells’ viability was determined by CellTiter 96® AQueous Non-Radioactive Cell Proliferation Assay (MTS), which was purchased from Promega® (Madison, WI, USA). The absorbance was measured using a microplate reader EnSpire (PerkinElmer, Waltham, MA USA) at 490 nm. All compounds were tested in quadruplicate.

[7] = rat serum, 0.3 mg/kg i.p., 0.3 mg/kg

SMILES: CCC(Oc1ccccc1)c1nc(N)nc(N2CCN(C)CC2)n1 (racemic) [Compound 3, (RS)-4-(4-methylpiperazin-1-yl)-6-(1-phenoxypropyl)-1,3,5-triazin-2-amine]
- Papp A→B at 2 h, 10 µM [1]: 3.16 ± 1.35 ×10⁻⁶ cm/s
- Papp B→A at 2 h, 10 µM [1]: 10.1 ± 0.15 ×10⁻⁶ cm/s
- CYP3A4 activity remaining [2]: 64%
- Papp at 5 h [3]: 15.1 ± 1 ×10⁻⁶ cm/s
- Immobility Time ([4]; 1 mg/kg i.p.): 177.50 ± 6.1 s
- decrease of immobility time vs vehicle-treated group ([4]; 3 mg/kg): about 30%
- Immobility Time ([4]; 3 mg/kg i.p.): 159.13 ± 13.3 s
- decrease of immobility time vs vehicle-treated group ([4]; 10 mg/kg): about 36%
- Immobility Time ([4]; 10 mg/kg i.p.): 134.63 ± 16.7 s
- Kp, brain ([5]; AUC0-t tissue / AUC0-t serum): 2.03
- Kp, liver ([5]; AUC0-t tissue / AUC0-t serum): 10.54
- MRT ([5]; male, Wistar, ip, rat serum, 0.3 mg/kg i.p.): 79.3 min
- Kp ([5]; male, Wistar, rat, brain (vs serum), 0.3 mg/kg, AUC0-t tissue / AUC0-t serum, read-out: Kp, brain): 2.63
- Tmax ([5]; male, Wistar, rat, brain, ip, 0.3 mg/kg, rat, 0.3 mg/kg i.p., read-out: Tmax, brain (converted)): 5 min
- half-life ([5]; male, Wistar, rat, brain, ip, 0.3 mg/kg, rat, 0.3 mg/kg i.p., read-out: elimination half-life, brain tissue): 112 min
- Kp ([5]; male, Wistar, rat, heart / serum, 0.3 mg/kg, AUC0-t tissue / AUC0-t serum, read-out: Kp, heart): 2.49
- Tmax ([5]; male, Wistar, rat, heart, ip, 0.3 mg/kg, rat, 0.3 mg/kg i.p., read-out: Tmax, heart (converted)): 5 min
- Kp ([5]; male, Wistar, rat, kidneys (vs serum), 0.3 mg/kg, AUC0-t tissue / AUC0-t serum, read-out: Kp, kidneys): 6.03
- Tmax ([5]; male, Wistar, rat, kidneys, ip, 0.3 mg/kg, rat, 0.3 mg/kg i.p., read-out: Tmax, kidneys (converted)): 15 min
- Kp ([5]; male, Wistar, rat, liver (vs serum), 0.3 mg/kg, AUC0-t tissue / AUC0-t serum, read-out: Kp, liver): 10.5
- Tmax ([5]; male, Wistar, rat, liver, ip, 0.3 mg/kg, rat, 0.3 mg/kg i.p., read-out: Tmax, liver (converted)): 5 min
- Kp ([5]; male, Wistar, rat, lungs / serum, 0.3 mg/kg, AUC0-t tissue / AUC0-t serum, read-out: Kp, lungs): 6.41
- Tmax ([5]; male, Wistar, rat, lungs, ip, 0.3 mg/kg, rat, 0.3 mg/kg i.p., read-out: Tmax, lungs (converted)): 5 min
- CL/F ([5]; male, Wistar, rat, serum, ip, 0.3 mg/kg, rat serum, 0.3 mg/kg i.p., read-out: CL/F (converted)): 587 mL/min/kg
- Tmax ([5]; male, Wistar, rat, serum, ip, 0.3 mg/kg, rat, 0.3 mg/kg i.p., read-out: Tmax, serum (converted)): 5 min
- half-life ([5]; male, Wistar, rat, serum, ip, 0.3 mg/kg, rat, 0.3 mg/kg i.p., read-out: t1/2λz, serum): 76.7 min
- Cmax ([5]; male, Wistar, serum, ip, rat, 0.3 mg/kg i.p., mean ± SD): 6.32 ± 5.03 ng/mL
- AUC(0-t) ([5]; male, Wistar, serum, ip, rat, 0.3 mg/kg i.p., mean ± SD, read-out: AUC0-t, serum (converted)): 7.07 ng·h/mL
- AUC(0-inf) ([5]; male, Wistar, serum, ip, rat, 0.3 mg/kg i.p., mean ± SD, read-out: AUC0-∞, serum (converted)): 8.53 ng·h/mL
- CL/F [5, 7]: 586 ± 298.7 mL/min/kg
- Vz/F [5, 7]: 65 L/kg and 64.81 ± 21.78 L/kg
- AUC0-t, heart ([5]; rat, 0.3 mg/kg i.p.): 1057.37 ± 285.41 ng·min/mL or ng·min/g
- AUC0-t, kidneys ([5]; rat, 0.3 mg/kg i.p.): 2557.08 ± 1084.42 ng·min/mL or ng·min/g
- AUC0-t, lungs ([5]; rat, 0.3 mg/kg i.p.): 2715.09 ± 1000.42 ng·min/mL or ng·min/g
- Cmax, heart ([5]; rat, 0.3 mg/kg i.p.): 21.83 ± 17.16 ng/mL or ng/g
- Cmax, kidneys ([5]; rat, 0.3 mg/kg i.p.): 41.25 ± 8.41 ng/mL or ng/g
- Cmax, liver ([5]; rat, 0.3 mg/kg i.p.): 129.62 ± 106.23 ng/mL or ng/g
- Cmax, lungs ([5]; rat, 0.3 mg/kg i.p.): 73.65 ± 63.94 ng/mL or ng/g
- AUC0-t, brain ([5]; rat, 0.3 mg/kg i.p., 0.3 mg/kg): 859.1 ng·min/mL or ng·min/g and 859.08 ± 312.87 ng·min/mL or ng·min/g
- AUC0-t, liver ([5]; rat, 0.3 mg/kg i.p., 0.3 mg/kg): 4467.2 ng·min/mL or ng·min/g and 4467.18 ± 2249.99 ng·min/mL or ng·min/g
- Cmax, brain ([5]; rat, 0.3 mg/kg i.p., 0.3 mg/kg): 11.35 ± 6.93 ng/mL or ng/g
- t1/2λz, serum ([5]; rat, 0.3 mg/kg i.p., 0.3 mg/kg): 77 min and 76.65 ± 18.07 min
- hepatotoxicity effect, HepG2 viability [6]: no hepatotoxicity effect
